Reference: ChEMBL document CHEMBL1909046, “DrugMatrix in vitro pharmacology data”

Tests used:
[1] = target: 5-hydroxytryptamine receptor 2B (Homo sapiens, UniProt P41595); type: cell membranes, CHO-K1, Membrane
[2] = target: T1, Cysteinyl leukotriene receptor 1 (Homo sapiens, UniProt Q9Y271); type: cell membranes, Membrane; conditions: cho-k1
T1 sequence (Q9Y271 whole entry): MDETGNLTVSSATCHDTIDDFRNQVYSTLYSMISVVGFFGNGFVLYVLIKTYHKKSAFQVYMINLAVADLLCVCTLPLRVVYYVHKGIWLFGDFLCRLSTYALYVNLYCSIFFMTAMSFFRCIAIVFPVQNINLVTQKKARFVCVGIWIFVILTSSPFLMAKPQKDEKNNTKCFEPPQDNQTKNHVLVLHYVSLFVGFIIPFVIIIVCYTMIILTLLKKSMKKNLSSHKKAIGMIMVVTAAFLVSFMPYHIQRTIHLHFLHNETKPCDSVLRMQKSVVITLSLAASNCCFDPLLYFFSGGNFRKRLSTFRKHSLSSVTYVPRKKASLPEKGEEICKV

[3] = target: Delta-type opioid receptor (Homo sapiens, UniProt P41143); type: cell membranes, Membrane; conditions: hek293
[4] = target: Protein phosphatase 3 catalytic subunit alpha (Homo sapiens, UniProt Q08209); design: species or system Escherichia coli;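 further: inhibition of calcineurin (PP2B) enzyme activity, measured with DiFMUP as the substrate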
[5] = target: Tyrosine-protein kinase Fyn (Homo sapiens, UniProt P06241); experiment: biochemical; type: cell-based, Insect cells;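 further: enzymatic inhibition of Fyn kinase activity measured with Poly(Glu:Tyr) as the phosphorylation substrate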
[6] = target: Receptor tyrosine-protein kinase erbB-2 (Homo sapiens, UniProt P04626); experiment: biochemical; type: cell-based, Insect cells;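 further: inhibition of HER2 kinase enzyme activity, measured with Poly(Glu:Tyr) as the phosphorylation substrate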
Further: in other assays of this panel Not Active means under 50% inhibition at 10 µM.

Sequence of 5-hydroxytryptamine receptor 2B (P41595 whole entry): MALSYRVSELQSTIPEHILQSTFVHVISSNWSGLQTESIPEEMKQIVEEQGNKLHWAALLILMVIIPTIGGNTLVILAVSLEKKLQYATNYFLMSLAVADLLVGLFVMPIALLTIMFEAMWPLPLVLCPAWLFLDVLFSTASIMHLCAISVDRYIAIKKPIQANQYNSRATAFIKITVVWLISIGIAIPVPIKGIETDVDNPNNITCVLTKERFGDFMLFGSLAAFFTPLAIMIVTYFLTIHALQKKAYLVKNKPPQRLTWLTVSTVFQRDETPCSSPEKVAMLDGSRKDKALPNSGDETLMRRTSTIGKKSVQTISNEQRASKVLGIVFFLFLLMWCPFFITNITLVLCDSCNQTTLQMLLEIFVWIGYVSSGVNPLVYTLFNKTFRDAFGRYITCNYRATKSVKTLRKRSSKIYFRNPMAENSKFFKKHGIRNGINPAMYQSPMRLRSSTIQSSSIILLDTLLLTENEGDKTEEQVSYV
Sequence of Receptor tyrosine-protein kinase erbB-2 (P04626 whole entry): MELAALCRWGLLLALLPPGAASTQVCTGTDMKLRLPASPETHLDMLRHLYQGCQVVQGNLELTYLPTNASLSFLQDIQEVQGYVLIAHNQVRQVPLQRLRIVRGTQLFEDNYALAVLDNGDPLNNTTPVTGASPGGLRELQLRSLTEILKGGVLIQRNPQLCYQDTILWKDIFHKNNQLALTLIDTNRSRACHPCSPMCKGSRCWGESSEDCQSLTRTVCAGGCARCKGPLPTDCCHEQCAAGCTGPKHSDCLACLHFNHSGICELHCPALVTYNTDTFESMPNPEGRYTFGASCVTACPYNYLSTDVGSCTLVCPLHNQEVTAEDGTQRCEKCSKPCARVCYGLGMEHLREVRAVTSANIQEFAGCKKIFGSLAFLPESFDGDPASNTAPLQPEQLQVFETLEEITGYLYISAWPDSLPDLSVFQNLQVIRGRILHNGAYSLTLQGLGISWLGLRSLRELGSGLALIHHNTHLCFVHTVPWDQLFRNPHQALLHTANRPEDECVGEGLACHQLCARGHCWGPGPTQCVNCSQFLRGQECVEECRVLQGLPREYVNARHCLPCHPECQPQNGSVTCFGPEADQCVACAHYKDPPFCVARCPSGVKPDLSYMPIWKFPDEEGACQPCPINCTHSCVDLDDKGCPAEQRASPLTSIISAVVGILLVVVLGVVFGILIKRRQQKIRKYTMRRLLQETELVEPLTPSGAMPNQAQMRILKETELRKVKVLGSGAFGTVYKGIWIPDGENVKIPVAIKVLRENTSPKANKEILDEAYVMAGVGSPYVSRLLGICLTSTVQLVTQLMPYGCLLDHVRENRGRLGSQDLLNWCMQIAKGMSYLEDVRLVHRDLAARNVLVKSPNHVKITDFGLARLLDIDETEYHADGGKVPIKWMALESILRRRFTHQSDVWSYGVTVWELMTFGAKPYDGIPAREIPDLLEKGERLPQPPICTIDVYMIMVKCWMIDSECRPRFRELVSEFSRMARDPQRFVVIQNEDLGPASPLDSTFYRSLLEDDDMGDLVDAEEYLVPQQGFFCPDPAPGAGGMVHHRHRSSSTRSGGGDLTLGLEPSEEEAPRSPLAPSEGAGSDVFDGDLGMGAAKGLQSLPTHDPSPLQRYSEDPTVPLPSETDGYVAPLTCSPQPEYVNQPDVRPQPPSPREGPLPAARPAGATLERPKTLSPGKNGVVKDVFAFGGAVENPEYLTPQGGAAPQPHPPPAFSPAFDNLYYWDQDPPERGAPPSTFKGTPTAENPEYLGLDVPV
Sequence of Delta-type opioid receptor (P41143 whole entry): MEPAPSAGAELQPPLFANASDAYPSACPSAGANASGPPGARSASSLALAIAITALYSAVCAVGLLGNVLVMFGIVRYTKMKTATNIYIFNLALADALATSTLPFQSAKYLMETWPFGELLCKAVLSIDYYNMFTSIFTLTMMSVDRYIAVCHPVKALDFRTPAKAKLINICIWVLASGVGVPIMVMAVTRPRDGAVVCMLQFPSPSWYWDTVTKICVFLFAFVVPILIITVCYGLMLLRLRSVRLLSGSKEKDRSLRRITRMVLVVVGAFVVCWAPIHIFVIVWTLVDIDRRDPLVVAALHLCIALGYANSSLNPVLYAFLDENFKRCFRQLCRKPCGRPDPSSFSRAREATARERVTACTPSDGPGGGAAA
Sequence of Tyrosine-protein kinase Fyn (P06241 whole entry): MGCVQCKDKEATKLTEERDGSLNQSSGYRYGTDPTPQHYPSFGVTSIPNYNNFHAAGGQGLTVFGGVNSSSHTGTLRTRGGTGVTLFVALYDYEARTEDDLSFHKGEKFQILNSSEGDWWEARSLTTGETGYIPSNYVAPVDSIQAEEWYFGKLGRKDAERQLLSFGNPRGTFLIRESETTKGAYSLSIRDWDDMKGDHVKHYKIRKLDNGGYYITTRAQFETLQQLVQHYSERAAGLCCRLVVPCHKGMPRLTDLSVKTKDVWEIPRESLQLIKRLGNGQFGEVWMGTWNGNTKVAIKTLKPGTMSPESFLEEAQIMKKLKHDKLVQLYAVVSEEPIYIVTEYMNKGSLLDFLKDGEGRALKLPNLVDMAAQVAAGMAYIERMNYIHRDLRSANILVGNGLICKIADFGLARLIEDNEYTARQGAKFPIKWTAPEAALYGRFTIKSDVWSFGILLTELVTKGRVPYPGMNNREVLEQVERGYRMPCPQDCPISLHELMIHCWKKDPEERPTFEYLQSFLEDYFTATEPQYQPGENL

| Compound | IC50 ([1]; cho-k1) | IC50 [2] | IC50 [3] | IC50 [4] | IC50 ([5]; insect cells) | IC50 ([6]; insect cells) | IC50 ([1]; read-out: IC50) [µM] | Ki ([1]; read-out: Ki) [µM] | IC50 ([5]; read-out: IC50) [µM] | IC50 ([6]; read-out: IC50) [µM] |
| --- | --- | --- | --- | --- | --- | --- | --- | --- | --- | --- |
| CC(=O)Oc1ccc(C(c2ccc(OC(C)=O)cc2)c2ccccn2)cc1 [BISACODYL] | Not Active | Not Active | Not Active | Not Active | Not Active | Not Active |  |  |  |  |
| Cc1cc2c(OCC(CNC(C)(C)C)OC(=O)c3ccccc3)cccc2[nH]1 (centres undefined) [BOPINDOLOL] |  | Not Active | Not Active | Not Active | Not Active | Not Active | 1.52 | 0.969 |  |  |
| Brc1c(NC2=NCCN2)ccc2nccnc12 [BRIMONIDINE] | Not Active | Not Active | Not Active | Not Active | Not Active | Not Active |  |  |  |  |
| CN(C)[C@@H]1C(O)=C(C(N)=O)C(=O)[C@@]2(O)C(O)=C3C(=O)c4c(O)ccc(Cl)c4[C@@](C)(O)[C@H]3C[C@@H]12 [CHLORTETRACYCLINE] | Not Active | Not Active | Not Active | Not Active | Not Active | Not Active |  |  |  |  |
| CN/C(=N\CCSCc1nc[nH]c1C)NC#N [CIMETIDINE] | Not Active | Not Active | Not Active | Not Active | Not Active | Not Active |  |  |  |  |
| COc1cc(N)c(Cl)cc1C(=O)NC1CCN(CCCOc2ccc(F)cc2)CC1OC (centres undefined) [CISAPRIDE] |  | Not Active | Not Active | Not Active | Not Active | Not Active |  |  |  |  |
| CCC(=O)O[C@]1(C(=O)CCl)[C@@H](C)C[C@H]2[C@@H]3CCC4=CC(=O)C=C[C@]4(C)[C@@]3(F)[C@@H](O)C[C@@]21C [CLOBETASOL PROPIONATE] | Not Active | Not Active | Not Active | Not Active | Not Active | Not Active |  |  |  |  |
| O=C1CN=C(c2ccccc2Cl)c2cc([N+](=O)[O-])ccc2N1 [CLONAZEPAM] | Not Active | Not Active | Not Active | Not Active | Not Active | Not Active |  |  |  |  |
| Nc1ccn([C@@H]2O[C@H](CO)[C@@H](O)[C@@H]2O)c(=O)n1 [CYTARABINE] | Not Active | Not Active | Not Active | Not Active | Not Active | Not Active |  |  |  |  |
| C[C@@H]1C[C@H]2[C@@H]3CCC4=CC(=O)C=C[C@]4(C)[C@@]3(F)[C@@H](O)C[C@]2(C)[C@H]1C(=O)CO [DESOXIMETASONE] | Not Active | Not Active | Not Active | Not Active | Not Active | Not Active |  |  |  |  |
| C[C@@H]1C[C@H]2[C@@H]3CCC4=CC(=O)C=C[C@]4(C)[C@@]3(F)[C@@H](O)C[C@]2(C)[C@@]1(O)C(=O)CO [DEXAMETHASONE] | Not Active | Not Active | Not Active | Not Active | Not Active | Not Active |  |  |  |  |
| CN(C)CC[C@@H](c1ccc(Cl)cc1)c1ccccn1 [DEXCHLORPHENIRAMINE] | Not Active | Not Active | Not Active | Not Active | Not Active | Not Active |  |  |  |  |
| C[C@@H]1CC[C@@]2(OC1)O[C@H]1[C@@H](O)[C@H]3[C@@H]4CC[C@H]5C[C@@H](O[C@@H]6O[C@H](CO)[C@H](O[C@@H]7O[C@H](CO)C(O)[C@H](O[C@@H]8OC[C@@H](O)[C@H](O)[C@H]8O)[C@H]7O[C@@H]7O[C@H](CO)[C@H](O)[C@H](O[C@@H]8O[C@H](CO)[C@@H](O)[C@H](O)[C@H]8O)[C@H]7O)[C@H](O)[C@H]6O)[C@H](O)C[C@]5(C)[C@H]4CC[C@]3(C)[C@H]1[C@@H]2C (some centres undefined) [DIGITONIN] | Not Active | Not Active | Not Active | Not Active | Not Active | Not Active |  |  |  |  |
| OC(CCCN1CCCCC1)(c1ccccc1)c1ccccc1 [DIPHENIDOL] | Not Active | Not Active | Not Active | Not Active | Not Active | Not Active |  |  |  |  |
| Oc1c(Cl)cc(Cl)c(Cl)c1Cc1c(O)c(Cl)cc(Cl)c1Cl [HEXACHLOROPHENE] |  | Not Active | Not Active | Not Active |  |  |  |  | 3.48 | 3.32 |
| CC(=O)O[C@H]1C(=O)[C@@]2(C)[C@H]([C@H](OC(=O)c3ccccc3)[C@]3(O)C[C@H](OC(=O)[C@H](O)[C@@H](NC(=O)c4ccccc4)c4ccccc4)C(C)=C1C3(C)C)[C@]1(OC(C)=O)CO[C@@H]1C[C@@H]2O [PACLITAXEL] | Not Active | Not Active |  | Not Active |  |  |  |  | 23.9 | 11.1 |
| CCCNCC(O)COc1ccccc1C(=O)CCc1ccccc1 (centres undefined) [PROPAFENONE] |  | Not Active | Not Active | Not Active | Not Active | Not Active |  |  |  |  |
